In US7342005B2, “Antibiotic compounds” (AstraZeneca UK Limited, priority 1992, dated 2008):
≈ marks a conversion by molar mass, not a printed value. Like-named read-outs stand apart in the source and are kept apart here.

Assays:
Assay in all cases: MIC by agar-dilution, Diagnostic Sensitivity Test
Format in all cases: cell-based
Conditions in all cases: inoculum 10^4 CFU/spot
E. coli TEM = system: E. coli TEM
Description: (§1) The following results were obtained for representative compounds on a standard in vitro test system using Diagnostic Sensitivity Test. The antibacterial activity is described in terms of the minimum inhibitory concentration (MIC) determined by the agar-dilution technique with an inoculum size of 10^4 CFU/spot.

S. aureus 147N = system: S. aureus 147N
Description: as §1

Enterobacter cloacae 029 = system: Enterobacter cloacae 029
Description: as §1

Enterobacter cloacae 108 = system: Enterobacter cloacae 108
Description: as §1

Row | SMILES | MIC (E. coli TEM) [µg/mL] | MIC (S. aureus 147N) [µg/mL] | MIC (Enterobacter cloacae 029) [µg/mL] | MIC (Enterobacter cloacae 108) [µg/mL] | MIC (E. coli TEM; Escherichia coli, read-out: MIC) [µg/mL] | MIC (S. aureus 147N; Staphylococcus aureus, read-out: MIC) [µg/mL] | MIC (Enterobacter cloacae 029; read-out: MIC) [µg/mL] | MIC (Enterobacter cloacae 108; read-out: MIC) [µg/mL]
1 | C[C@@H](O)[C@H]1C(=O)N2C(C(=O)O)=C(S[C@@H]3CN[C@H](C(=O)Nc4cc(O)cc(C(=O)O)c4)C3)[C@H](C)[C@H]12 [Example 1, (1R,5S,6S,8R,2′S,4′S)-2-(2-(3-Carboxy-5-hydroxyphenylcarbamoyl)-pyrrolidin-4-yl-thio)-6-(1-hydroxyethyl)-1-methylcarbapenem-3-carboxylic acid] | 0.03 (≈ 0.061 µM) | 0.25 (≈ 0.509 µM) | 0.06 (≈ 0.122 µM) | 1.00 (≈ 2.03 µM) |  |  |  | 
2 | CO/N=C(\C(=O)N[C@@H]1C(=O)N2C(C(=O)O)=C(CSc3nc(=O)c(=O)[nH]n3C)CS[C@H]12)c1csc(N)n1 [ceftriaxone, reference compound] |  |  |  |  | 0.03 (≈ 0.0541 µM) | 2 (≈ 3.61 µM) | 0.06 (≈ 0.108 µM) | 32 (≈ 57.7 µM)
3 | CC(O)C1C(=O)N2C(C(=O)O)=C(SC3CNC(C(=O)Nc4ccc(Cl)c(C(=O)O)c4)C3)C(C)[C@H]12 (stereo partly drawn) [Example 2, (1R,5S,6S,8R,2′S,4′S)-2-(2-(3-Carboxy-4-chlorophenylcarbamoyl)-pyrrolidin-4-ylthio)-6-(1-hydroxyethyl)-1-methylcarbapenem-3-carboxylic acid] | 0.02 (≈ 0.0392 µM) | 0.50 (≈ 0.98 µM) | 0.03 (≈ 0.0588 µM) | 1.00 (≈ 1.96 µM) |  |  |  | 
4 | CC(O)C1C(=O)N2C(C(=O)O)=C(SC3CNC(C(=O)Nc4cccc(C(=O)O)c4)C3)C(C)[C@H]12 (stereo partly drawn) [Example 4, (1R,5S,6S,8R,2′S,4′S)-2-(2-(3-Carboxyphenylcarbamoyl)pyrrolidin-4-ylthio) -6-(1-hydroxyethyl)-1-methylcarbapenem-3-carboxylic acid] | 0.02 (≈ 0.0421 µM) | 0.25 (≈ 0.526 µM) | 0.03 (≈ 0.0631 µM) | 0.50 (≈ 1.05 µM) |  |  |  | 
5 | C[C@@H](O)[C@H]1C(=O)N2C(C(=O)O)=C(S[C@@H]3CN[C@H](C(=O)Nc4ccc(O)c(C(=O)O)c4)C3)[C@H](C)[C@H]12 [Example 10, (1R,5S,6S,8R,2′S,4′S)-2-(2-(3-Carboxy-4-hydroxyphenylcarbamoyl)pyrrolidin-4-ylthio)-6-(1-hydroxyethyl)-1-methylcarbapenem-3-carboxylic acid] | 0.01 (≈ 0.0203 µM) | 0.13 (≈ 0.264 µM) | 0.01 (≈ 0.0203 µM) | 0.25 (≈ 0.509 µM) |  |  |  | 
